How the values were obtained:
ALK-wt = biological target: T1, ALK-wt (Homo sapiens, UniProt Q9UM73); experiment: Biochemical kinase assay, ALK-wt kinase domain; details: apparent inhibitory constant, Morrison equation; ATP 2 mM in substrate solution; read-out: ALK-wt Ki^app
T1 construct: purchased Carna 08-518
How it was run: (§1)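 Compound in DMSO added first, then substrate solution (ATP 2 mM; AQT0101 or AQT0104, 26 μM; pH 7.5 HEPES, 10 mM MgCl2), then kinase solution with enzyme at 0.5–3 nM depending on construct. Kinetic read every 2 min for 120 min at 30° C; Ki^app by Morrison regression.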

ALK L1196M/G1202R = biological target: T2, ALK L1196M/G1202R (Homo sapiens, UniProt Q9UM73, G1202R/L1196M); experiment: Biochemical kinase assay, ALK L1196M/G1202R kinase domain; details: apparent inhibitory constant, Morrison equation; ATP 2 mM in substrate solution; read-out: ALK-L1196M-G1202R Ki^app
T2 construct: purchased SignalChem A19-12NG
How it was run: as §1

ROS1-wt = biological target: T3, ROS1-wt (Homo sapiens, UniProt P08922); experiment: Biochemical kinase assay, ROS1-wt kinase domain; details: apparent inhibitory constant, Morrison equation; ATP 2 mM in substrate solution; read-out: ROS1-wt Ki^app
T3 construct: purchased Carna 08-163
How it was run: (§2)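 Kinetic read: 485 nm, 2-min intervals, 120 min, 30 °C. Substrate mix — ATP 2 mM, AQT0101 26 μM, HEPES 50 mM pH 7.5, MgCl2 10 mM. Output: Ki^app, Morrison equation.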

ROS1-G2032R = biological target: T4, ROS1-G2032R (Homo sapiens, UniProt P08922, G2032R); experiment: Biochemical kinase assay, ROS1-G2032R kinase domain; details: apparent inhibitory constant, Morrison equation; ATP 2 mM in substrate solution; read-out: ROS1-G2032R Ki^app
T4 construct: purchased SignalChem R14-12BG
How it was run: as §2

TRKA-wt = biological target: T5, TRKA-wt (Homo sapiens, UniProt P04629); experiment: Biochemical kinase assay, TRKA-wt kinase domain; details: apparent inhibitory constant, Morrison equation; ATP 2 mM in substrate solution; read-out: TRKA-wt Ki^app
T5 construct: or TRKA-wt (1 nM, BPS Bio, 40280) kinase domains in buffer; purchased BPS Bio 40280
How it was run: as §1

[1] = biological target: T6, Ba/F3 cells CD74-ROS1 wild-type (wt) (Homo sapiens, UniProt P08922); experiment: Ba/F3 cell proliferation assay, CD74-ROS1 wild-type; assay type: cell-based; details: 72 hours, CellTiter-Glo
T6 construct: fusion of the C-terminus of ROS1 with the N-terminus of various partner proteins; host or cells: Ba/F3 (RIKEN), retroviral pMSCV-puro; the other entry of the earlier key: CD74 (P04233, HLA class II histocompatibility antigen gamma chain)
How it was run: (§3)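 IL-3-independent Ba/F3 CD74-ROS1 lines, puromycin-selected monoclones; 1,000 cells/well, plated 1 d before dosing; 3-fold serial dilutions, 72 h; CellTiter-Glo luminescence; IC50 by 4-parameter logistic regression.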

[2] = biological target: T7, Ba/F3 cells CD74-ROS1 G2032R (Homo sapiens, UniProt P08922, G2032R); experiment: Ba/F3 cell proliferation assay, CD74-ROS1 G2032R; assay type: cell-based; details: 72 hours, CellTiter-Glo
T7 construct: fusion of the C-terminus of ROS1 with the N-terminus of various partner proteins; host or cells: Ba/F3 (RIKEN), retroviral pMSCV-puro; the other entry of the earlier key: CD74 (P04233, HLA class II histocompatibility antigen gamma chain)
How it was run: as §3

[3] = biological target: T8, Ba/F3 cells EML4-ALK wt (variant 1) (Homo sapiens, UniProt Q9UM73); experiment: Ba/F3 cell proliferation assay, EML4-ALK wt (variant 1); assay type: cell-based; details: 72 hours, CellTiter-Glo
T8 construct: echinoderm microtubule-associated protein-like 4 (EML4) gene and the ALK tyrosine kinase domain; host or cells: Ba/F3 (RIKEN), retroviral pMSCV-puro; the other entry of the earlier key: EML4 (Q9HC35, Echinoderm microtubule-associated protein-like 4)
How it was run: (§4)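 IL-3-independent Ba/F3 monoclones, puromycin-selected, transduced with fusion genes; 1,000 cells/well, 1 day rest, 3-fold compound series, 72 h. Read: CellTiter-Glo luminescence. IC50 from % inhibition vs concentration, 4-parameter logistic.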

[4] = biological target: T9, Ba/F3 cells EML4-ALK L1196M/G1202R (variant 1) (Homo sapiens, UniProt Q9UM73, G1202R/L1196M); experiment: Ba/F3 cell proliferation assay, EML4-ALK L1196M/G1202R (variant 1); assay type: cell-based; details: 72 hours, CellTiter-Glo
T9 construct: echinoderm microtubule-associated protein-like 4 (EML4) gene and the ALK tyrosine kinase domain; host or cells: Ba/F3 (RIKEN), retroviral pMSCV-puro; the other entry of the earlier key: EML4 (Q9HC35, Echinoderm microtubule-associated protein-like 4)
How it was run: as §4

Ba/F3 cells TPM3-TRKA = biological target: T10, Ba/F3 cells TPM3-TRKA (Homo sapiens, UniProt P04629); experiment: Ba/F3 cell proliferation assay, TPM3-TRKA; assay type: cell-based; details: 72 hours, CellTiter-Glo, read-out: TPM3-NTRK1-wt IC50
T10 construct: host or cells: Ba/F3 (RIKEN), retroviral pMSCV-puro; the other entry of the earlier key: TPM3 (P06753, Tropomyosin alpha-3 chain)
How it was run: as §4

[5] = system: TPM3-NTRK1-wt IC50 / primary target IC50 (e.g. CD74-ROS1-wt); experiment: TRKA selectivity in Ba/F3 cells (TRKA potency divided by primary target potency); assay type: cell-based; details: for TPM3-NTRK1-wt/CD74-ROS1-G2032R selectivity ratio: TRKA potency / CD74-ROS1-G2032R potency; for TPM3-NTRK1-wt/CD74-ROS1-wt selectivity ratio: TRKA potency / CD74-ROS1-wt potency; for TPM3-NTRK1-wt/EML4-ALK-L1196M-G1202R selectivity ratio: TRKA potency / EML4-ALK-L1196M-G1202R potency; for TPM3-NTRK1-wt/EML4-ALK-wt selectivity ratio: TRKA potency / EML4-ALK-wt potency
Description: TRKA selectivity was calculated by dividing a compound's TRKA potency by its primary target potency (e.g. TPM3-NTRK1-wt IC50/CD74-ROS1-wt IC50). Compound selectivity can be interpreted by binning ratio values: bin A for very high selectivity, ratio >30-fold; bin B for high selectivity, ratio >10-fold; bin C for moderate selectivity, ratio ≥1; and bin D for low selectivity, ratio <1. […] (nd=not determined).

T3 sequence (P08922 1945-2222 limits assumed): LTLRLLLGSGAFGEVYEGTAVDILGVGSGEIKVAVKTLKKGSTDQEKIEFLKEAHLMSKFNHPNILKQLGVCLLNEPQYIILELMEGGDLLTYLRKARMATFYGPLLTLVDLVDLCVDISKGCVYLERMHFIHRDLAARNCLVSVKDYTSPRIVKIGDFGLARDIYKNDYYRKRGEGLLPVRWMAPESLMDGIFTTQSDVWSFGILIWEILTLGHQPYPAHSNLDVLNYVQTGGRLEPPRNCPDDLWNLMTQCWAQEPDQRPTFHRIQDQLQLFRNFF
T1 sequence (Q9UM73 1116-1392 limits assumed): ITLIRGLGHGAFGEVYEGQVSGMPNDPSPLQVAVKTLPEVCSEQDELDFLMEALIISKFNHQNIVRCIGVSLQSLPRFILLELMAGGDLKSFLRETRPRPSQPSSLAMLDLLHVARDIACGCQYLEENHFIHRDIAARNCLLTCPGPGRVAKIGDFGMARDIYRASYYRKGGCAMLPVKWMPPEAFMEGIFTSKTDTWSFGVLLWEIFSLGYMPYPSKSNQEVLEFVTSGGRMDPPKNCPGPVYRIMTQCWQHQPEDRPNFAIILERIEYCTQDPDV
T10 sequence (P04629 510-796 limits assumed): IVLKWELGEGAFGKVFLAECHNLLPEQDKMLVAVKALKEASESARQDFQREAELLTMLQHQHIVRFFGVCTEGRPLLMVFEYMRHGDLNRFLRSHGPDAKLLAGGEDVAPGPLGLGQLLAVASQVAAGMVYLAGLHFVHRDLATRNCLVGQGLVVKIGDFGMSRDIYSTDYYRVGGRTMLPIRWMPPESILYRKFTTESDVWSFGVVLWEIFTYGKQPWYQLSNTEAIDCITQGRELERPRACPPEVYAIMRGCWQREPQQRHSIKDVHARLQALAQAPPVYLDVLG
T4 sequence (P08922 1945-2222 G2032R limits assumed): as the sequence (P08922 1945-2222 limits assumed) above, with G88R counted along it
T7 sequence (P08922 1883-2347 G2032R limits assumed): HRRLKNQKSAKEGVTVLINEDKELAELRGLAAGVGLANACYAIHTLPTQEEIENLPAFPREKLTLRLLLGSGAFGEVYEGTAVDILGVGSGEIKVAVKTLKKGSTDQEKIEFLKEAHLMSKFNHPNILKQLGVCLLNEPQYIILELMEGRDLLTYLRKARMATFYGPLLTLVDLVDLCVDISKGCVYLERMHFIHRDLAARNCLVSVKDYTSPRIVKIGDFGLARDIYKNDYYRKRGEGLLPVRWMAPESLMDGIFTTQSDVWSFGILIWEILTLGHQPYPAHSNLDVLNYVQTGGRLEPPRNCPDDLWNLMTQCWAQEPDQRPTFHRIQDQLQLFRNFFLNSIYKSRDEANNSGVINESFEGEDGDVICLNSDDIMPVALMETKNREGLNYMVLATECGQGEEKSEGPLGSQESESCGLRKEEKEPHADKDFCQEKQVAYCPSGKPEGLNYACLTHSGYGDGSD
T6 sequence (P08922 1883-2347 limits assumed): as the sequence (P08922 1883-2347 G2032R limits assumed) above, with R150G counted along it
T2 sequence (Q9UM73 1116-1392 L1196M/G1202R limits assumed): as the sequence (Q9UM73 1116-1392 limits assumed) above, with L81M, G87R counted along it
T5 sequence (P04629 510-781 limits assumed): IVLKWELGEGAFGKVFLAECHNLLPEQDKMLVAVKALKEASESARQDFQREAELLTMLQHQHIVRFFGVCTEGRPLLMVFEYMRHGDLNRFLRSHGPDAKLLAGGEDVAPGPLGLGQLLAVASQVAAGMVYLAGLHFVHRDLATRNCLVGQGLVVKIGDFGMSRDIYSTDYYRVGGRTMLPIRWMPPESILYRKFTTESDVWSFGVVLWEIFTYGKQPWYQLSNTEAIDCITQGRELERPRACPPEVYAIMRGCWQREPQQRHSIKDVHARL
T8 sequence (Q9UM73 with tags, fused parts or gaps): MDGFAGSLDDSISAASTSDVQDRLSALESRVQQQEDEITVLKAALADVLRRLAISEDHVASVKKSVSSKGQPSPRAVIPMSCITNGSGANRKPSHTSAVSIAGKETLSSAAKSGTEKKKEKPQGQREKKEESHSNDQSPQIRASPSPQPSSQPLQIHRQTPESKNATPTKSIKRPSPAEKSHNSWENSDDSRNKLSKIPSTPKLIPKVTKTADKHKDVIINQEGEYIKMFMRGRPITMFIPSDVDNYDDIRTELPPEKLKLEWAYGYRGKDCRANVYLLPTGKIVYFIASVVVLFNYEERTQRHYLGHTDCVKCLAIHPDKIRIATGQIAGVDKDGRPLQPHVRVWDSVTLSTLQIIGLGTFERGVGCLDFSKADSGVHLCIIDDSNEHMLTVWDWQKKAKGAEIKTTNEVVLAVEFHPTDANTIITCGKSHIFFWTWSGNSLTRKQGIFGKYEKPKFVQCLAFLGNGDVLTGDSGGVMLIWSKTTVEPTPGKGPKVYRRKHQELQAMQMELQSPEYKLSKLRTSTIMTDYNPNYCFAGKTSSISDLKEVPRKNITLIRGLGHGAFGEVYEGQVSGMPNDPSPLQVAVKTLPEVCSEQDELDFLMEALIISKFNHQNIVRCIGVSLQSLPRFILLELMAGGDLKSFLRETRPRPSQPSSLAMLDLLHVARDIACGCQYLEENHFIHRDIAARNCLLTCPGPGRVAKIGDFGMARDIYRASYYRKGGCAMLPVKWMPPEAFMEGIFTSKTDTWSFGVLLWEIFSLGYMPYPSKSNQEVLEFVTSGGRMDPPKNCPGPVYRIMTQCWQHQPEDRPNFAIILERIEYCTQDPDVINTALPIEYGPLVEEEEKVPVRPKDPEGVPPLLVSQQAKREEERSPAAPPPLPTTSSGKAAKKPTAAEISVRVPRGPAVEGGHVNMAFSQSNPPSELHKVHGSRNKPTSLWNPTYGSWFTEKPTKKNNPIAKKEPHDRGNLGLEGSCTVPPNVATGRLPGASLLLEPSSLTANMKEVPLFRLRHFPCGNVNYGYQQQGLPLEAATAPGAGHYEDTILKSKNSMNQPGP
T9 sequence (Q9UM73 with tags, fused parts or gaps L1196M/G1202R): as the sequence (Q9UM73 with tags, fused parts or gaps) above, with L635M, G641R counted along it

| SMILES | Ki (ALK-wt) | Ki (ALK L1196M/G1202R) | Ki (ROS1-wt) | Ki (ROS1-G2032R) | Ki (TRKA-wt) | IC50 [1] | IC50 [2] | IC50 [3] | IC50 [4] | IC50 (Ba/F3 cells TPM3-TRKA) | TPM3-NTRK1-wt/CD74-ROS1-G2032R selectivity ratio [5] | TPM3-NTRK1-wt/CD74-ROS1-wt selectivity ratio [5] | TPM3-NTRK1-wt/EML4-ALK-L1196M-G1202R selectivity ratio [5] | TPM3-NTRK1-wt/EML4-ALK-wt selectivity ratio [5] |
| --- | --- | --- | --- | --- | --- | --- | --- | --- | --- | --- | --- | --- | --- | --- |
| C[C@H]1Oc2cc(cnc2N)-c2c(cnn2CC2CC2)Cc2nn(C)cc2-c2ccc(F)cc21 [Example 61, (19R)-3-(cyclopropylmetbyl)-16-fluoro-10,19-dimethyl-20-oxa-3,4,9,10,23-pentaazapentacyclo[19.3.1.0^2,^6.0^8,^12.0^13,^18]pentacosa-1(24),2(6),4,8,11,13,15,17,21(25),22-decaen-22-amine] | < 50 nM | < 50 nM | < 50 nM | < 50 nM | > 500 nM | 0.1 to 50 nM | 0.1 to 50 nM | 0.1 to 50 nM | 0.1 to 50 nM | > 500 nM | A (bin A for very high selectivity, ratio >30-fold) | A (bin A for very high selectivity, ratio >30-fold) | A (bin A for very high selectivity, ratio >30-fold) | A (bin A for very high selectivity, ratio >30-fold) |
| CCn1ncc2c1-c1cnc(N)c(c1)O[C@H](C)c1cc(F)ccc1-c1nsnc1C2 [Example 62, (19R)-3-ethyl-16-fluoro-19-methyl-20-oxa-10-thia-3,4,9,11,23-pentaazapentacyclo[19.3.1.0^2,^6.0^8,^12.0^13,^18]pentacosa-1(24),2(6),4,8,11,13,15,17,21(25),22-decaen-22-amine] | < 50 nM | < 50 nM | < 50 nM | < 50 nM | 50 to 500 nM | 0.1 to 50 nM | 0.1 to 50 nM | 0.1 to 50 nM | 0.1 to 50 nM | 50 to 500 nM | A (bin A for very high selectivity, ratio >30-fold) | A (bin A for very high selectivity, ratio >30-fold) | C (bin C for moderate selectivity, ratio ≥1) | A (bin A for very high selectivity, ratio >30-fold) |
| C[C@H]1Oc2cc(cnc2N)-c2c(CC3CC3)noc2Cc2nn(C)nc2-c2ccc(F)cc21 [Example 63, (19R)-3-(cyclopropylmethyl)-16-fluoro-10,19-dimethyl-5,20-dioxa-4,9,1 0,11,23-pentaazapentacyclo [19.3.1.0^2,^6.0^8,^12.0^13,^18]pentacosa-1(24),2(6),3,8,11,13,15,17,21(25),22-decaen-22-amine] | < 50 nM | < 50 nM | < 50 nM | < 50 nM | > 500 nM | 0.1 to 50 nM | 0.1 to 50 nM | 0.1 to 50 nM | 0.1 to 50 nM | 50 to 500 nM | A (bin A for very high selectivity, ratio >30-fold) | A (bin A for very high selectivity, ratio >30-fold) | B (bin B for high selectivity, ratio >10-fold) | A (bin A for very high selectivity, ratio >30-fold) |
| Cc1nn(CC2CC2)c2c1Cn1ncnc1-c1ccc(F)cc1[C@@H](C)Oc1cc-2cnc1N [Example 64, (19R)-3-(cyclopropylmethyl)-16-fluoro-5,19-dimethyl-20-oxa-3,4,8,9,11,23-hexaazapentacyclo[19.3.1.0^2,^6.0^8,^12.0^13,^18]pentacosa-1(24),2(6),4,9,11,13,15,17,21(25),22-decaen-22-amine] | < 50 nM | < 50 nM | < 50 nM | < 50 nM | > 500 nM | 0.1 to 50 nM | 0.1 to 50 nM | 0.1 to 50 nM | 50 to 500 nM | > 500 nM | A (bin A for very high selectivity, ratio >30-fold) | A (bin A for very high selectivity, ratio >30-fold) | A (bin A for very high selectivity, ratio >30-fold) | A (bin A for very high selectivity, ratio >30-fold) |
| Cc1nn(CC2CC2)c2c1Cc1nn(C)nc1-c1ccc(F)cc1[C@@H](C)Oc1cc-2cnc1N [Example 65] | < 50 nM | < 50 nM | < 50 nM | < 50 nM | > 500 nM | 0.1 to 50 nM | 0.1 to 50 nM | 0.1 to 50 nM | 0.1 to 50 nM | > 500 nM | A (bin A for very high selectivity, ratio >30-fold) | A (bin A for very high selectivity, ratio >30-fold) | A (bin A for very high selectivity, ratio >30-fold) | A (bin A for very high selectivity, ratio >30-fold) |

Reference: patent US12054498B2, “Heteroaromatic macrocyclic ether chemotherapeutic agents” (Nuvalent, Inc., priority 2020, dated 2024)
